Assay results as given in paper PMC5957473, “Small Molecule Neuropilin-1 Antagonists Combine Antiangiogenic and Antitumor Activity with Immune Modulation through Reduction of Transforming Growth Factor Beta (TGFβ) Production in Regulatory T-Cells” (Journal of Medicinal Chemistry, 2018).

Tests used:
NRP1-b1 = target: T1, NRP1-b1 (Homo sapiens, UniProt O14786); experiment: SPR equilibrium binding assay (Biacore 4000), immobilised NRP1-b1; details: equilibrium (steady-state) binding, 25 °C, average ± SD of high and low density surfaces
T1 construct: His6 (TEV protease-cleavable) (N); made in house; host or cells: Escherichia coli Rosetta Gami 2 (DE3) pLysS
T1 sequence (O14786 273-427): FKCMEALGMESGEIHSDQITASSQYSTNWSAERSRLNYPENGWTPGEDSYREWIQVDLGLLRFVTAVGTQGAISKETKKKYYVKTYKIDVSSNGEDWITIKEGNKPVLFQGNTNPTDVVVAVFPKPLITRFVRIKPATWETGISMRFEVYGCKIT
Experimental: All the compounds were evaluated using an SPR binding assay (Biacore) where recombinant NRP1-b1b2 protein was immobilized on a dextran coated chip.[23] Selected compounds were then evaluated in competitive binding assay systems using biotinylated VEGF. […] This encouraging result prompted us to conduct a more focused structure–activity study around the 10a structure.
Surface plasmon resonance experiments were performed using a Biacore 4000 instrument at 25 °C. Sensor chips, buffer stock solutions, and immobilization reagents were from GE Healthcare. Recombinant human NRP1-b1 was as above. Other reagents were obtained from Sigma. Immobilization: PBS (containing 0.05% surfactant P20) was used as the running buffer. The four flow cells were treated in the same way to optimize throughput. In summary, using a CM5 chip spots 1 and 2 were activated with the coupling reagents EDC and NHS for 10 min. NRP1-b1 at a concentration of 20 μg/mL in 10 mM sodium acetate pH 5 was injected onto the surface for 10 and 5 min in spots 1 and 2, respectively, to generate surfaces with high and low density. The immobilization levels ranged from 2302 to 1823 RU on spot 1 and from 948 to 1112 RU in spot 2. The unmodified spot 3 was used as a reference. […] Dose–responses were obtained using a 2-fold sample dilution from 16 μM to 31 nM, using an injection time of 60 s. Surface regeneration between injections was not necessary, but a wash step with 1 M NaCl was included after injection of the highest concentration sample for each compound. Data processing: Binding curves were corrected for variations in DMSO concentration and normalized by molecular weight. Binding results to high and low-density surfaces were processed independently and the average ± SD is presented. KDs reported are derived from steady-state binding responses and therefore correspond to the equilibrium binding affinity of the compounds.

[1] = IV pharmacokinetics in mice; assay type: in vivo; details: for half-life: 2 mg/kg
Experimental: To test compound drug-like properties, selected compounds with low IC50 were further tested for pharmacokinetics (PK) profile. First, 6–8 week-old BABL/c female mice were used, then 2 mg/kg of compounds was formulated in 7.5% DMSO and 92.5% solution and intravenously dosed from the tail vein as a bolus. Blood samples were collected by cardiac puncture at 5, 15, 30, 60, 180, and 240 min post dosing. Plasma samples were prepared by centrifugation at 7000 rpm for 5 min, and supernatants were collected, immediately snap-frozen on dry ice, and stored at −20C. Samples were analyzed by liquid chromatography–tandem mass spectrometry using electrospray ionization and data was analyzed by WinNonlin software.

HUVEC cells [2] = test system: HUVEC cells; parameters: method as in PMID 20151671; details: 100 μM in combination with VEGF-A; cited from earlier work
NRP1 = test system: NRP1; parameters: method as in PMID 20151671; details: read-out: IC50, inhibition of bt-VEGF-A binding to NRP1; cited from earlier work
Nrp1+ Tregs = experiment: TGFβ production by Nrp1+ Tregs exposed to glioma conditioned media (ELISA); assay type: cell-based, mice; details: 500 nM pretreatment 2 h, GCM 12 h
[3] = test system: A375P (malignant melanoma) cells; experiment: 3D spheroid invasion assay; assay type: cell-based
HUVEC cells [4] = experiment: Wound healing scratch assay; assay type: cell-based, human; details: 30 μM + VEGF-A 25 ng/mL, 1% EGM
HUVEC cells [5] = experiment: Transwell migration (chemotaxis) of HUVEC cells toward VEGF-A; assay type: cell-based, human; details: 30 μM, no VEGF-A
DU145/cells.Ad.NRP1 = target: T2, DU145/cells.Ad.NRP1 (Homo sapiens, UniProt O14786); experiment: Cell-based competition binding with bt-VEGF in DU145 cells infected with adenovirus expressing WT NRP1; details: HS value in brackets beside IC50
T2 construct: expressed in transfected cells; host or cells: DU145 prostate cancer cells (ATCC) infected with adenovirus
T2 sequence (O14786 22-923): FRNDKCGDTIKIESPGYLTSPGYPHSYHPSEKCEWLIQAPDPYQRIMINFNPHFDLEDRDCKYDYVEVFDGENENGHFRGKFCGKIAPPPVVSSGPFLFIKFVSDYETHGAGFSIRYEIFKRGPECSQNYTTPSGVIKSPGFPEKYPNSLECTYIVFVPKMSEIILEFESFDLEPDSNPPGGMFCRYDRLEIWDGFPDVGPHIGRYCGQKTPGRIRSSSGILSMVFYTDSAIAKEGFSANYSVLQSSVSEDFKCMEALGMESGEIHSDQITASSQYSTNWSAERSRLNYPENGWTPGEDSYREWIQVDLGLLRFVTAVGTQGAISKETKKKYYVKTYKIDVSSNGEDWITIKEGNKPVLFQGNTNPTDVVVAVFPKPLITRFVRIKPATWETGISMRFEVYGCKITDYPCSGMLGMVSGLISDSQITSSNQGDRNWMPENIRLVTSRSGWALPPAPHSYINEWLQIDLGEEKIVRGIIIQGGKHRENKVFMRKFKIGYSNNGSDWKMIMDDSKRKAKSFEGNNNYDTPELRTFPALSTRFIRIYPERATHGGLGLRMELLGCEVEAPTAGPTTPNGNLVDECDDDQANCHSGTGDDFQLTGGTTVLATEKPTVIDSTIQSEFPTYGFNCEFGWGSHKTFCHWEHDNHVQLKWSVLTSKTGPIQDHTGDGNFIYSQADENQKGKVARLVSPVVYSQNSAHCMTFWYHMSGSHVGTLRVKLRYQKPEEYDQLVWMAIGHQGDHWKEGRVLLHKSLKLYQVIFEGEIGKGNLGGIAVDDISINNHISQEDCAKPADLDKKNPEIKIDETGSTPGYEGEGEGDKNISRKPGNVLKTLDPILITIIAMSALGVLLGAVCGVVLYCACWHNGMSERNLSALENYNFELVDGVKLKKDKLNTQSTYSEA

NRP2 = target: T3, NRP2 (Homo sapiens, UniProt O60462); experiment: SPR single-cycle binding to NRP2 (Biacore T200); details: 62.5 – 1000 nM, NRP2 His tagged and NRP2-Fc chimera
T3 sequence (O60462 23-802 limits assumed): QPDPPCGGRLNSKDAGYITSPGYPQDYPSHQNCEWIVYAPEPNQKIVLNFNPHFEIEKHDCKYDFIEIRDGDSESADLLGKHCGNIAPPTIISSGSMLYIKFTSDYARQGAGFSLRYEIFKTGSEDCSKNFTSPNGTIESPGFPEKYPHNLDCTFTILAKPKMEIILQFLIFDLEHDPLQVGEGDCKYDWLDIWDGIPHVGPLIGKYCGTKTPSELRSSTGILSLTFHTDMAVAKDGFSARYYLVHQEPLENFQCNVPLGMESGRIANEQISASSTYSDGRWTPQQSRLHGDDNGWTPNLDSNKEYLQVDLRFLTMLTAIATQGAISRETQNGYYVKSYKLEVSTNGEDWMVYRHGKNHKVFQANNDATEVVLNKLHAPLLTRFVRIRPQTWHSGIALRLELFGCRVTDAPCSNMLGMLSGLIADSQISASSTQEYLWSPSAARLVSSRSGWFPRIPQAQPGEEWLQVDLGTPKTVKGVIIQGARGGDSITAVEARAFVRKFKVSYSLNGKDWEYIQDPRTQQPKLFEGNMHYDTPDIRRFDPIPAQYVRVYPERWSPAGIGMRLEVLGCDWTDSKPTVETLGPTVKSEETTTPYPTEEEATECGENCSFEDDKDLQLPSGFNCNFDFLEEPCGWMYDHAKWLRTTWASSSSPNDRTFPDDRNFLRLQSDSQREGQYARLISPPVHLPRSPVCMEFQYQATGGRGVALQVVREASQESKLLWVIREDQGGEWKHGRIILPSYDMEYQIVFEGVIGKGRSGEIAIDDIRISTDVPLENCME

[6] = female, BABL/c (so in the source); BALB/c), mouse, plasma, IV bolus 2 mg/kg

N=C(N)NCCC[C@H](NC(=O)c1sccc1NS(=O)(=O)c1cc(-c2ccccc2CNCc2ncc[nH]2)cc2c1OCC2)C(=O)O [9b, N2-(3-((5-(2-((((1H-Imidazol-2-yl)methyl)amino)methyl)phenyl)-2,3-dihydrobenzofuran)-7-sulfonamido)thiophene-2-carbonyl)-Nω-((2,2,4,6,7-pentamethyl-2,3-dihydrobenzofuran-5-yl)sulfonyl)-L-arginine]
Kd (NRP1-b1): 1.77 ± 0.1 µM

N=C(N)NCCC[C@H](NC(=O)c1sccc1NS(=O)(=O)c1cc(-c2ccccc2CNCc2cc[nH]n2)cc2c1OCC2)C(=O)O [9c, N2-(3-((5-(2-((((1H-Pyrazol-3-yl)methyl)amino)methyl)phenyl)-2,3-dihydrobenzofuran)-7-sulfonamido)thiophene-2-carbonyl)-Nω-((2,2,4,6,7-pentamethyl-2,3-dihydrobenzofuran-5-yl)sulfonyl)-L-arginine]
Kd (NRP1-b1): 2.1 ± 0.04 µM

N=C(N)NCCC[C@H](NC(=O)c1sccc1NS(=O)(=O)c1cc(-c2ccccc2CNCc2cn[nH]c2)cc2c1OCC2)C(=O)O [9d, N2-(3-((5-(2-((((1H-Pyrazol-4-yl)methyl)amino)methyl)phenyl)-2,3-dihydrobenzofuran)-7-sulfonamido)thiophene-2-carbonyl)-Nω-((2,2,4,6,7-pentamethyl-2,3-dihydrobenzofuran-5-yl)sulfonyl)-L-arginine]
Kd (NRP1-b1): 2.14 ± 0.07 µM

N=C(N)NCCC[C@H](NC(=O)c1sccc1NS(=O)(=O)c1cc(-c2ccccc2CNCc2ccccn2)cc2c1OCC2)C(=O)O [9e, Nω-((2,2,4,6,7-Pentamethyl-2,3-dihydrobenzofuran-5-yl)sulfonyl)-N2-(3-((5-(2-(((pyridin-2-ylmethyl)amino)methyl)phenyl)-2,3-dihydrobenzofuran)-7-sulfonamido)thiophene-2-carbonyl)-L-arginine]
Kd (NRP1-b1): 0.68 ± 0.21 µM

N=C(N)NCCC[C@H](NC(=O)c1sccc1NS(=O)(=O)c1cc(-c2cccc(CNCc3ncc[nH]3)c2)cc2c1OCC2)C(=O)O [10b, N2-(3-((5-(3-((((1H-Imidazol-2-yl)methyl)amino)methyl)phenyl)-2,3-dihydrobenzofuran)-7-sulfonamido)thiophene-2-carbonyl)-Nω-((2,2,4,6,7-pentamethyl-2,3-dihydrobenzofuran-5-yl)sulfonyl)-L-arginine]
Kd (NRP1-b1): 0.84 ± 0.16 µM

N=C(N)NCCC[C@H](NC(=O)c1sccc1NS(=O)(=O)c1cc(-c2cccc(CNCc3cc[nH]n3)c2)cc2c1OCC2)C(=O)O [10c, N2-(3-((5-(3-((((1H-Pyrazol-3-yl)methyl)amino)methyl)phenyl)-2,3-dihydrobenzofuran)-7-sulfonamido)thiophene-2-carbonyl)-Nω-((2,2,4,6,7-pentamethyl-2,3-dihydrobenzofuran-5-yl)sulfonyl)-L-arginine]
Kd (NRP1-b1): 1.45 ± 0.07 µM

N=C(N)NCCC[C@H](NC(=O)c1sccc1NS(=O)(=O)c1cc(-c2cccc(CNCc3cn[nH]c3)c2)cc2c1OCC2)C(=O)O [10d, N2-(3-((5-(3-((((1H-Pyrazol-4-yl)methyl)amino)methyl)phenyl)-2,3-dihydrobenzofuran)-7-sulfonamido)thiophene-2-carbonyl)-Nω-((2,2,4,6,7-pentamethyl-2,3-dihydrobenzofuran-5-yl)sulfonyl)-L-arginine]
t1/2 ([1]; IV bolus 2 mg/kg): 1.20 h
half-life ([1]; female, BABL/c (so in the source); BALB/c), mouse, plasma, IV): 1.2 h
AUC(0-inf) [1, 6]: 3140 ng·h/mL
Cmax [1, 6]: 2620 ng/mL
Tmax [1, 6]: 4.8 min
Vd [1, 6]: 1.1 L/kg
clearance [1, 6]: 18.4 mL/min/kg
Kd (NRP1-b1): 1.43 ± 0.11 µM

N=C(N)NCCC[C@H](NC(=O)c1sccc1NS(=O)(=O)c1cc(-c2cccc(CNCc3ccccn3)c2)cc2c1OCC2)C(=O)O [10e, Nω-((2,2,4,6,7-Pentamethyl-2,3-dihydrobenzofuran-5-yl)sulfonyl)-N2-(3-((5-(3-(((pyridin-2-ylmethyl)amino)methyl)phenyl)-2,3-dihydrobenzofuran)-7-sulfonamido)thiophene-2-carbonyl)-L-arginine]
Kd (NRP1-b1): 0.41 ± 0.09 µM

N=C(N)NCCC[C@H](NC(=O)c1sccc1NS(=O)(=O)c1cccc2nsnc12)C(=O)O [EG00229, (S)-2-(3-(benzo[c][1,2,5]thiadiazole-4-sulfonamido)thiophene-2-carboxamido)-5-((diaminomethylene)amino)pentanoic acid]
reduction of migration (previously reported) (HUVEC cells [2]): ≈ 34%
IC50 (NRP1): 8 µM

N=C(N)NCCC[C@H](NC(=O)c1sccc1NS(=O)(=O)c1cc(-c2ccc(CN)cc2)cc2c1OCC2)C(=O)O [compound 1, (3-((5-(4-(Aminomethyl)phenyl)-2,3-dihydrobenzofuran)-7-sulfonamido)thiophene-2-carbonyl)-L-arginine]
half-life ([1]; female, BABL/c, mouse, plasma, IV): 4.29 h
clearance ([1]; female, BABL/c, mouse, plasma, IV bolus 2 mg/kg): 14 mL/min/kg
effect on GCM-induced production of TGFβ (Nrp1+ Tregs): inhibited the GCM-induced production of TGFβ
effect on A375P spheroid invasion induced by VEGF-A ([3]; 30 μM + VEGF-A 25 ng/mL, 7 days): significantly inhibited invasion induced by VEGF-A
effect on A375P radial invasion, compound alone ([3]; 30 μM, compared to DMSO control): no significant effect on radial invasion
effect on VEGF-induced wound closure (HUVEC cells [4]): can delay the VEGF-induced wound closure
effect on HUVEC migration, compound alone (HUVEC cells [5]): did not influence the migratory ability of these cells
DU145/cells.Ad.NRP1, (HS) (DU145/cells.Ad.NRP1): 0.9
binding to NRP2 by SPR (NRP2): no detectable NRP2 binding

CN(C)Cc1cccc(-c2cc3c(c(S(=O)(=O)Nc4ccsc4C(=O)N[C@@H](CCCNC(=N)N)C(=O)O)c2)OCC3)c1 [compound 13, (3-((5-(3-((Dimethylamino)methyl)phenyl)-2,3-dihydrobenzofuran)-7-sulfonamido)thiophene-2-carbonyl)-L-arginine]
clearance and AUC compared with 1 ([1]; IV, in words): notably higher clearance and lower AUC than 1
